# Assay results published in patent US20130115256A1, “METHODS FOR TREATING OR PREVENTING VASCULAR GRAFT FAILURE” (priority 2010, published 2013).
# Tests used:
# [1] = system: human endothelial cell (EC; HAEC); experiment: MTS cell proliferation assay, human endothelial cells; assay type: cell-based
# Method: The CellTiter 96® AQueous Non-Radioactive Cell Proliferation Assay (Promega) was used to assess drug effects on cell proliferation according to the manufacturer's instructions. Briefly, HAECs and HASMCs from early passages were grown to 80-90% confluence in 25 cm^2 tissue culture flasks in a 37° C./5% CO2 incubator prior to harvest. 200 μl of each type of cell suspension (at 20,000 cells/cm^2) was seeded onto separate 96-well plates to yield an approximate 60% confluence per well. Cells were allowed to adhere to the plate surface overnight, followed by addition of 20 ng/ml of TNF-α to stimulate production of inflammatory agents. After a 4-6 hour incubation period, MMI-0100 peptide drug ([…]; SEQ ID NO: 1) was added and cells incubated for another 20-24 hours. Each well was then supplemented with 100 μl of fresh medium and 200 μl of CellTiter 96® AQueous One Solution Reagent and incubated for an additional 1.5-2 hours prior to measuring absorbance of each well at 490 nm with a SoftMax®-equipped plate reader.
# In order to determine the effect of pharmacological doses of MMI-0100 ([…]; SEQ ID NO: 1) on human endothelial cell (EC) and smooth muscle cell (SMC) proliferation, human EC and SMC cultures were treated with three concentrations (0.25 mM, 0.5 mM, and 1 mM) of MMI-0100 ([…] (SEQ ID NO: 1)) following pre-treatment with TNF-α.
# [2] = system: human saphenous vein (HSV); experiment: Human saphenous vein organ culture model of intimal hyperplasia
# Method: Dc-identified, discarded segments of human saphenous vein (HSV) were collected from consented patients undergoing coronary artery or peripheral vascular bypass surgeries. HSV segments were stored in a saline solution until the end of the surgical procedure, at which time they were placed in cold transplant harvest buffer (100 mM potassium lactobionate, 25 mM KH2PO4, 5 mM MgSO4, 30 mM Raffinose, 5 mM Adenosine, 3 mM Glutathione, 1 mM Allopurinol, 50 g/L Hydroxyethyl starch, pH 7.4). The vessels were used within 24 hours of harvest. Using sterile technique, HSV segments were transferred to a 60-mm Petri dish under a sterile hood. The edges (0.5 mm) of each segment were removed with a blade and excess adventitial tissue and fat removed with minimal manipulation. […]
# After viability was determined in the muscle bath, additional rings were cut and placed in 8-well chamber slides and maintained in RPMI 1640 medium supplemented with 30% FBS, 1% L-glutamine and 1% penicillin/streptomycin for 14 days at 37° C. in an atmosphere of 5% CO2 in air. […]
# After 14 days of organ culture, vein segments were fixed in 0.5 mL of 10% formalin at 37° C. for 30 minutes and embedded in paraffin for sectioning. […] Intimal and medial thickening was measured for each section at 5× magnification with the microscope's computerized image analysis system. […]
sequence,measurement,setting,value
YARAAARQARAKALARQLGVAA [MMI-0100],EC proliferation compared to control (20 ng/ml TNF-α alone),[1]; 0.25 mM MMI-0100,slightly increased
same,increase in EC proliferation compared to control (20 ng/ml TNF-α alone),[1]; 0.5 mM MMI-0100,30%
same,increase in EC proliferation compared to control (20 ng/ml TNF-α alone),[1]; 1 mM MMI-0100,11%
same,"EC morphology, phase contrast images",[1]; 24 hours treatment,no obvious morphological changes
same,mean intimal thickness,"[2]; 10 μM MMI-0100, 14 days culture, 30% FBS",14 μm
same,intima:media (I:M) ratio,"[2]; 100 μM MMI-0100, 14 days, 30% serum",greater reduction
